Results as given in patent publication US9932314B2, “Pyrazole compounds and their use as T-type calcium channel blockers” (IDORSIA PHARMACEUTICALS LTD, priority 2015, dated 2018).

target: T1, voltage-dependent T-type calcium channel subunit alpha-1G (Cav3.2) (Homo sapiens, UniProt O95180); assay: FLIPR calcium flux assay, HEK293 cells recombinantly expressing Cav3.2; type: cell-based; details: Cav3.2-channel, Fluo-4-AM, 3 min incubation, stimulation with 10 mM CaCl2
T1 construct: expressed in transfected cells; host or cells: HEK293
T1 sequence (O95180 whole entry): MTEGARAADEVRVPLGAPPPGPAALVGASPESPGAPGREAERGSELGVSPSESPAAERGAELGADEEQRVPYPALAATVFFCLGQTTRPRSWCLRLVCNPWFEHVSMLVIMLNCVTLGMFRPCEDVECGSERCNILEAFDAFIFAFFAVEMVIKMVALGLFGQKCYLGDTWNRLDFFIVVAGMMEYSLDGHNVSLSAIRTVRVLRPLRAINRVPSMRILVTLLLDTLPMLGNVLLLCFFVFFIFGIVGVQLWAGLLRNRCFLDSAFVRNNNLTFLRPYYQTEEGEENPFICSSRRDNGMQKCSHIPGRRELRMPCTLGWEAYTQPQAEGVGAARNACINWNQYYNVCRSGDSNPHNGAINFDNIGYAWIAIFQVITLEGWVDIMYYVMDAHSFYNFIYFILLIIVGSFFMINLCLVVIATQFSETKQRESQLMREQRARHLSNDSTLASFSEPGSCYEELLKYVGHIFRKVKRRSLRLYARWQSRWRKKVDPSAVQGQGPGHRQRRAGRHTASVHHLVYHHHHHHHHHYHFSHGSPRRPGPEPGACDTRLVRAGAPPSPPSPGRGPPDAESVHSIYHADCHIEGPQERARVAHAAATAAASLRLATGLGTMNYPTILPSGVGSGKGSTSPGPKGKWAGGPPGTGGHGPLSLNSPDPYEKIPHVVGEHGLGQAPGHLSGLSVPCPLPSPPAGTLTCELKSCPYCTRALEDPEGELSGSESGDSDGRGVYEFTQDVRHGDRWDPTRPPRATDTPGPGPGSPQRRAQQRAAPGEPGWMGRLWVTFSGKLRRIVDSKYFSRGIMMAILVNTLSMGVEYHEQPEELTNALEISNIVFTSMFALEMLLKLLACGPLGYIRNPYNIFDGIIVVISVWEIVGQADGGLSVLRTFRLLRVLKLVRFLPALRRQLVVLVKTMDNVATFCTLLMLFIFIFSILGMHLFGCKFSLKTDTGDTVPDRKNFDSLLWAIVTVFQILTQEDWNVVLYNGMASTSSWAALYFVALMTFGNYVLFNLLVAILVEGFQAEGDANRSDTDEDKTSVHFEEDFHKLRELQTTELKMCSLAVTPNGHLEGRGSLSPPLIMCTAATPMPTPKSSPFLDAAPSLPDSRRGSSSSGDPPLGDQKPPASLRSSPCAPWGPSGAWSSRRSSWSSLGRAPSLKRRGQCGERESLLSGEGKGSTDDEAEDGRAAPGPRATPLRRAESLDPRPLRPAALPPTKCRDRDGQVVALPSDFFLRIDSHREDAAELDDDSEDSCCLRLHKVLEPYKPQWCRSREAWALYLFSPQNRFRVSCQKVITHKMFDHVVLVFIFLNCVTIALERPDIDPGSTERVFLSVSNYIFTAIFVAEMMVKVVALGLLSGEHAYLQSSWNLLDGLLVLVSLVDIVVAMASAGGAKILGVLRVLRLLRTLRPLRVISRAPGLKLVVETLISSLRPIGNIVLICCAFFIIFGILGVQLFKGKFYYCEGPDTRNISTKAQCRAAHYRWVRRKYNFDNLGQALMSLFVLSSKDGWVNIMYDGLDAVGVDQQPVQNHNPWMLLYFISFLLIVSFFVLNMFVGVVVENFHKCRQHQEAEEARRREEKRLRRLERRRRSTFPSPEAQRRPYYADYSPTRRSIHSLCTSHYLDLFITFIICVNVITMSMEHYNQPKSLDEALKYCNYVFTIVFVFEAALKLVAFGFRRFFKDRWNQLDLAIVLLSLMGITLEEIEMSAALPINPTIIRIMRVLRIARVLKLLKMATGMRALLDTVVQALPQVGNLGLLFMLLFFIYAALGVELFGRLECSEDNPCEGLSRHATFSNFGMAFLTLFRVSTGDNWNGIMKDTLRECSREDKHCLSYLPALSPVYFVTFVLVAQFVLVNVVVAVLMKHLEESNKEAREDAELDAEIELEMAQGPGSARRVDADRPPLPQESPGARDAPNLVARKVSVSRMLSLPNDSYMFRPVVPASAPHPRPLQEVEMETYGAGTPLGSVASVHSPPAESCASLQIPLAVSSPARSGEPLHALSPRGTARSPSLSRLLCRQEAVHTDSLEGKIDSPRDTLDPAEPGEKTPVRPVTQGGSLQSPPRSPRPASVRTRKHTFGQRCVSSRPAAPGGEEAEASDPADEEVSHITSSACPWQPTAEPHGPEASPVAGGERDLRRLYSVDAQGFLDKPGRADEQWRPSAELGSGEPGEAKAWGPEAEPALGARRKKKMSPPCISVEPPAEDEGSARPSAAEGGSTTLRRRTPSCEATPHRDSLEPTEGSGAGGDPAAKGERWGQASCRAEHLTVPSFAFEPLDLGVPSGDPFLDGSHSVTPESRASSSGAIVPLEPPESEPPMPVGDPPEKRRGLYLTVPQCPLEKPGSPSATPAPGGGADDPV
Method: In Vitro Methods—Measurement of Calcium Channel Flux by Means of FLIPR Assays.
HEK293 cells recombinantly expressing either voltage-dependent T-type calcium channel subunit […] (Cav3.2) or voltage-dependent L-type calcium channel subunit alpha-1C (Cav1.2) are assayed for calcium flux using the calcium indicator dye Fluo-4-AM (Molecular Devices) and FLIPR technology (Fluorometric Imaging Plate Reader, Molecular Devices) (Xie X, Van Deusen A L, Vitko I, Babu D A, Davies L A, Huynh N, Cheng H, Yang N, Barrett P Q, Perez-Reyes E. Validation of high throughput screening assays against three subtypes of Ca(v)3 T-type channels using molecular and pharmacologic approaches. Assay and Drug Development Technologies 2007, 5(2), 191-203). The HEK293 cells recombinantly expressing Cav3.2 are maintained in DMEM growth medium (Life Technologies) supplemented with 10% Fetal Bovine Serum (FBS), 100 U/ml penicilin (Life Technologies), 100 μg/ml streptomycin (Life Technologies) and 1 mg/ml G418 (Life Technologies). HEK293 cells recombinantly expressing Cav1.2 are maintained in DMEM growth medium (Life technologies) supplemented with 10% FBS, 0.1 mg/ml G418 (Life Technologies), 0.1 mg/ml hygromycin (Life Technologies) and 40 ug/ml zeocin (Life Technologies).
The seeded plates are incubated overnight at 37° C.
The cells are then washed three times with assay buffer (HBSS 1×; 0.375 g/L NaHCO3; 20 mM Hepes; 1% FBS; pH 7.4) and allowed to rest in 50 μl of wash buffer for 30 minutes.
Stock solutions of test compounds are prepared to a concentration of 10 mM in DMSO. For the Cav3.2 assay, serial dilutions of the compounds are prepared in TEAC buffer (100 mM tetraethylammonium chloride; 20 mM Hepes; 2.5 mM CaCl2; 5 mM KCl; 1 mM MgCl2; 1% FBS; pH 7.2), for the Cav1.2 assay serial dilutions are prepared in assay buffer. […] The compounds are incubated with the cells for 3 minutes and Ca2+ entry is stimulated by adding either CaCl2 to a final concentration of 10 mM (Cav3.2 assay) or by adding KCl to a final concentration of 20 mM (Cav1.2 assay). The kinetics of fluorescence increase are recorded for every well and the area under the fluorescence trace for every compound concentration is used to generate inhibition curves using non-linear regression sigmoidal concentration-response curve analysis with in-house software.

Point of comparison: `N#Cc1cc(Cn2ccc(NC(=O)Cc3cnc(N4CCCC4)c(F)c3)n2)ccc1F` [Example 340, N-[1-(3-Cyano-4-fluoro-benzyl)-1H-pyrazol-3-yl]-2-(5-fluoro-6-pyrrolidin-1-yl-pyridin-3-yl)-acetamide], IC50 8.5 nM. Against it:
- N#Cc1ccc(Cn2ccc(NC(=O)Cc3ccc(N4CC[C@H](F)C4)nc3)n2)cc1 [Example 154, N-[1-(4-Cyano-benzyl)-1H-pyrazol-3-yl]-2-[6-((S)-3-fluoro-pyrrolidin-1-yl)-pyridin-3-yl]-acetamide] — 9.2-fold higher, 78 nM
- Cc1cn(C)c2cc(CC(=O)Nc3ccn(Cc4ccc(F)c(C#N)c4)n3)ccc12 [Example 330, N-[1-(3-Cyano-4-fluoro-benzyl)-1H-pyrazol-3-yl]-2-(1,3-dimethyl-1H-indol-6-yl)-acetamide] — 1.8-fold lower, 4.8 nM
- CC(C)c1ccc(CC(=O)Nc2ccn(Cc3ccc(F)c(C#N)c3)n2)cc1 [Example 282, N-[1-(3-Cyano-4-fluoro-benzyl)-1H-pyrazol-3-yl]-2-(4-isopropyl-phenyl)-acetamide] — within 1.5-fold, 12 nM
- Cc1ccc(Cn2ccc(NC(=O)Cc3ccc4c(c3)c(C)nn4C)n2)nc1C#N [Example 368, N-[1-(6-Cyano-5-methyl-pyridin-2-ylmethyl)-1H-pyrazol-3-yl]-2-(1,3-dimethyl-1H-indazol-5-yl)-acetamide] — 35-fold higher, 301 nM
- CC1(COc2ccc(CC(=O)Nc3ccn(Cc4ccc(C#N)c(F)c4)n3)cc2)COC1 [Example 263, N-[1-(4-Cyano-3-fluoro-benzyl)-1H-pyrazol-3-yl]-2-[4-(3-methyl-oxetan-3-ylmethoxy)-phenyl]-acetamide] — 11-fold higher, 97 nM
- N#Cc1ccc(Cn2ccc(NC(=O)Cc3ccc(OC4CCC4)cc3)n2)cc1 [Example 197, N-[1-(4-Cyano-benzyl)-1H-pyrazol-3-yl]-2-(4-cyclobutoxy-phenyl)-acetamide] — 6.4-fold higher, 54 nM
- Cn1cc(C2CCC2)c2cc(CC(=O)Nc3ccn(Cc4ccc(F)c(C#N)c4)n3)ccc21 [Example 327, N-[1-(3-Cyano-4-fluoro-benzyl)-1H-pyrazol-3-yl]-2-(3-cyclobutyl-1-methyl-1H-indol-5-yl)-acetamide] — 4.4-fold higher, 37 nM
- CCN(C)c1ccc(CC(=O)Nc2ccn(Cc3ccc(OC)cc3)n2)cn1 [Example 174, 2-[6-(Ethyl-methyl-amino)-pyridin-3-yl]-N-[1-(4-methoxy-benzyl)-1H-pyrazol-3-yl]-acetamide] — 38-fold higher, 319 nM
- Cc1ccc(Cn2ccc(NC(=O)Cc3ccc(N(C)C)nc3)n2)cc1F [Example 38, 2-(6-Dimethylamino-pyridin-3-yl)-N-[1-(3-fluoro-4-methyl-benzyl)-1H-pyrazol-3-yl]-acetamide] — 4.6-fold higher, 39 nM
- CN(C)c1ccc(CC(=O)Nc2ccn(Cc3ccc(F)c(Cl)c3)n2)cc1 [Example 31, N-[1-(3-Chloro-4-fluoro-benzyl)-1H-pyrazol-3-yl]-2-(4-dimethylamino-phenyl)-acetamide] — 2.1-fold lower, 4 nM
- O=C(Cc1ccc(N2CC(F)(F)C2)nc1)Nc1ccn(Cc2ccc(F)cc2)n1 [Example 145, 2-[6-(3,3-Difluoro-azetidin-1-yl)-pyridin-3-yl]-N-[1-(4-fluoro-benzyl)-1H-pyrazol-3-yl]-acetamide] — 5.2-fold higher, 44 nM
- CC(C)c1ccc(CC(=O)Nc2ccn(Cc3cc(F)c(C#N)c(F)c3)n2)cc1 [Example 353, N-[1-(4-Cyano-3,5-difluoro-benzyl)-1H-pyrazol-3-yl]-2-(4-isopropyl-phenyl)-acetamide] — 3.5-fold higher, 30 nM
- Cc1cc(CC(=O)Nc2ccn(Cc3ccc(F)c(C#N)n3)n2)ccc1OCCC(F)(F)F [Example 420, N-[1-(6-Cyano-5-fluoro-pyridin-2-ylmethyl)-1H-pyrazol-3-yl]-2-[3-methyl-4-(3,3,3-trifluoro-propoxy)-phenyl]-acetamide] — within 1.5-fold, 8.7 nM
- Cc1cc(CC(=O)Nc2ccn(Cc3ccc(C)c(C#N)n3)n2)ccc1OCC(F)(F)F [Example 367, N-[1-(6-Cyano-5-methyl-pyridin-2-ylmethyl)-1H-pyrazol-3-yl]-2-[3-methyl-4-(2,2,2-trifluoro-ethoxy)-phenyl]-acetamide] — within 1.5-fold, 10 nM
- COc1ccc(Cn2ccc(NC(=O)Cc3ccc(N(C)CC4CC4)nc3)n2)cc1 [Example 188, 2-[6-(Cyclopropylmethyl-methyl-amino)-pyridin-3-yl]-N-[1-(4-methoxy-benzyl)-1H-pyrazol-3-yl]-acetamide] — 7.1-fold higher, 60 nM
- CC(C)c1ccc(CC(=O)Nc2ccn(Cc3cc(Cl)c(C#N)cn3)n2)cc1 [Example 157, N-[1-(4-Chloro-5-cyano-pyridin-2-ylmethyl)-1H-pyrazol-3-yl]-2-(4-isopropyl-phenyl)-acetamide] — 4-fold higher, 34 nM
- CC1(C)Cc2cc(CC(=O)Nc3ccn(Cc4ccc(C#N)cn4)n3)ccc2O1 [Example 378, N-[1-(5-Cyano-pyridin-2-ylmethyl)-1H-pyrazol-3-yl]-2-(2,2-dimethyl-2,3-dihydro-benzofuran-5-yl)-acetamide] — 29-fold higher, 249 nM
- O=C(Cc1ccc(OC2CCC2)cc1)Nc1ccn(Cc2ccc(F)cc2)n1 [Example 198, 2-(4-Cyclobutoxy-phenyl)-N-[1-(4-fluoro-benzyl)-1H-pyrazol-3-yl]-acetamide] — 1.9-fold higher, 16 nM
- Cc1nc(Cn2ccc(NC(=O)Cc3ccc(C(C)C)cc3)n2)ccc1C#N [Example 132, N-[1-(5-Cyano-6-methyl-pyridin-2-ylmethyl)-1H-pyrazol-3-yl]-2-(4-isopropyl-phenyl)-acetamide] — 6-fold higher, 51 nM
- Cc1cc(Cn2ccc(NC(=O)Cc3ccc(N(C)C)cc3)n2)cc(C)c1F [Example 25, 2-(4-Dimethylamino-phenyl)-N-[1-(4-fluoro-3,5-dimethyl-benzyl)-1H-pyrazol-3-yl]-acetamide] — 7.5-fold higher, 64 nM
- Cn1ccc2cc(CC(=O)Nc3ccn(Cc4ccc(C#N)c(F)c4)n3)ccc21 [Example 292, N-[1-(4-Cyano-3-fluoro-benzyl)-1H-pyrazol-3-yl]-2-(1-methyl-1H-indol-5-yl)-acetamide] — within 1.5-fold, 6.5 nM
- Cn1ncc2cc(CC(=O)Nc3ccn(Cc4ccc(C#N)cn4)n3)ccc21 [Example 249, N-[1-(5-Cyano-pyridin-2-ylmethyl)-1H-pyrazol-3-yl]-2-(1-methyl-1H-indazol-5-yl)-acetamide] — 35-fold higher, 295 nM
- N#Cc1c(F)cc(Cn2ccc(NC(=O)Cc3ccc(C4(F)COC4)cc3)n2)cc1F [Example 347, N-[1-(4-Cyano-3,5-difluoro-benzyl)-1H-pyrazol-3-yl]-2-[4-(3-fluoro-oxetan-3-yl)-phenyl]-acetamide] — 10-fold higher, 85 nM
- N#Cc1cc(Cn2ccc(NC(=O)Cc3ccc(C4CC(F)(F)C4)cc3)n2)ccc1F [Example 312, N-[1-(3-Cyano-4-fluoro-benzyl)-1H-pyrazol-3-yl]-2-[4-(3,3-difluoro-cyclobutyl)-phenyl]-acetamide] — within 1.5-fold, 10 nM
- CC(C)c1ccc(CC(=O)Nc2ccn(Cc3ccc(C4CC4)cn3)n2)cc1 [Example 96, N-[1-(5-Cyclopropyl-pyridin-2-ylmethyl)-1H-pyrazol-3-yl]-2-(4-isopropyl-phenyl)-acetamide] — 6.2-fold higher, 53 nM
- COC(C)c1ccc(CC(=O)Nc2ccn(Cc3ccc(C#N)cn3)n2)cc1 (racemic) [Example 203, rac-N-[1-(5-Cyano-pyridin-2-ylmethyl)-1H-pyrazol-3-yl]-2-[4-(1-methoxy-ethyl)-phenyl]acetamide] — 150-fold higher, 1260 nM
- COc1ccc(Cn2ccc(NC(=O)Cc3ccc(OC4CCC4)cc3)n2)cc1 [Example 199, 2-(4-Cyclobutoxy-phenyl)-N-[1-(4-methoxy-benzyl)-1H-pyrazol-3-yl]-acetamide] — 8.7-fold higher, 74 nM
